What was measured:
[1] = biological target: T1, tyrosinase (Mus musculus, UniProt P11344); assay: Activity analysis of tyrosinase in B16 cells; type: cell-based; details: 5 μM to 125 μM, 48 hours
T1 construct: endogenous in cells; host or cells: B16 cells
T1 sequence (P11344 19-533): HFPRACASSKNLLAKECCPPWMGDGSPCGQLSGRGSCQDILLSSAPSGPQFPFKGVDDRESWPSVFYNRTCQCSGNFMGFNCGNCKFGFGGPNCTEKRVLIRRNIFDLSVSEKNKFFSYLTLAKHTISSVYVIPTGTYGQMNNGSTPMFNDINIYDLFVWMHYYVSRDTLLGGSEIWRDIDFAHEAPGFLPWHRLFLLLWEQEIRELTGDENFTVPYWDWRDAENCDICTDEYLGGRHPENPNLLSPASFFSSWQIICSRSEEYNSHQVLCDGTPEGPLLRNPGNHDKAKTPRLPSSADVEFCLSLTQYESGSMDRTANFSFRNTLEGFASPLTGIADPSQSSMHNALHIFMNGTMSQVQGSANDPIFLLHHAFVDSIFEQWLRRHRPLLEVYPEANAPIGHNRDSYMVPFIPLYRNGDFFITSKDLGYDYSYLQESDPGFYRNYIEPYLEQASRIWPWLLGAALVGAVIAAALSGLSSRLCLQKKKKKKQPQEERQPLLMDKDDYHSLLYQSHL
Method: It has been known that tyrosinase is one of the primary protein participating in melanogenesis. In this experiment, different concentrations (5 μM to 125 μM) of the compounds of formula […] or (2) prepared in Example 1 were used to treat B16 cells (1.5×10^4) for 48 hours, and the activity of tyrosinase was analyzed by western blotting.

[2] = test system: c-Fos; assay: Inhibition test of AP-1 gene transcription factors, western blot; type: cell-based, human; details: 10 μM; UVB 40 mJ/cm^2
Source text: When cells are irradiated by UV rays, JNK, p38 and c-Jun in the cells will translocated into the nucleus, and c-For will translocate into the nucleus under the regulation of ERK and p38. The two subunits of c-Jun and c-Fos will combine to form an AP-1 gene transcription factor to participate in gene expression process and increase the mRNA transcription level of MMP-1. On the other hand, the two subunits can also reduce the gene expression level of procollagen al of Type I collagen. Therefore, in this experiment, the expression of AP-1 in the nucleus was analyzed by western blotting.
However, after the cells were treated with the compound of formula (2) prepared in Example 1, the protein expression levels of c-Fos, p-c-Jun, and c-Jun induced by UVB were inhibited in a concentration dependent way. Specifically, when the concentration of the compound of formula (2) was 10 μM, the expression level of c-Fos was 1.1 as compared to that of the untreated cells.

[3] = test system: MMP-3; assay: MMP expression, western blot, UVB-irradiated Hs68 cells; type: cell-based, human; details: 25 μM; UVB 40 mJ/cm^2; 48 hours
Method: (§1) Human fibroblast Hs68 cells (5×10^5) (the number of Bioresource Collection and Research Center (BCRC): 60038) were counted and incubated in a culture dish with a diameter of 10 cm (the culture dish components were adjusted by L-glutamine (4 mM) to have 1.5 g/L NaHCO3, 4.5 g/L glucose, and 90% Dulbecco's Modified Eagle's Medium with 10% fetal bovine serum (FBS)). The medium was removed until human fibroblast Hs68 cells grow to a confluence of 80%, and the cells were then washed once with 5 ml PBS (phosphate buffered saline). Then, 3 ml phenol red-free medium which contain different concentrations (0 μM to 25 μM) of the compounds of formula (1) or formula (2) prepared in Example 1 were added into the culture dish. After incubating for 1 hour, the cells were irradiated by UV light (UVB with an intensity of 40 mJ/cm^2) for 15 seconds. Next, the phenol red-free medium which contains different concentrations (0 μM to 25 μM) of the compounds of formula (1) or formula (2) prepared in Example 1 were added into the culture dish sequentially. After incubation in an incubator (37° C., 5% CO2) for 48 hours, the cells were collected.
(§2) The collected cells were treated with a sonication buffer (containing Na3VO4 (100 μM), phenylmethanesulfonyl fluoride (PMSFL, 100 mg/ml), leupeptin (20 mg/ml), Tris-HCl (pH 7.4, 50 μM), NaCl (37.5 μM), DL-dithiothretiol (250 μM), sodium deoxycholate (3 μM), EDTA (1 μM), SDS (0.1%), and Igepal™ CA-630 (Sigma-Aldrich, 1%)) and sonicated to rupture the cell membranes. Then, the organelles and fragments of the cells were precipitated by centrifugation, and the supernatant, which contains proteins in the cytosol was collected. Next, the obtained proteins were separated by SDS-PAGE, and transferred to a membrane by western blotting. Antibodies were used to recognize the targeted proteins, such as MMP-1, MMP-3, MMP-9, and actin. The images were recorded by a Luminescent imagination technology (LAS-4000, FUJIFILM), and the variation of the proteins expression levels were determined by a quantitative analysis software (multi Gauge 2.2, Steware Technology Inc.).

[4] = test system: MMP-1; assay: as above; type: cell-based, human; details: 5 μM; UVB 40 mJ/cm^2; 48 hours
Method: as §1, §2

[5] = test system: MMP-9; type: cell-based, human; details: 10 μM; UVB 40 mJ/cm^2; 48 hours
Method: After incubating for 1 hour, the cells were irradiated by UV light (UVB with an intensity of 40 mJ/cm^2) for 15 seconds. […] After incubation in an incubator (37° C., 5% CO2) for 48 hours, the cells were collected.

O=C(C=Cc1ccc(O)c(O)c1)NCCc1ccc(Br)cc1 [Compound of formula (2)]
activity of the tyrosinase in the cells [1]: inhibited
expression level of c-Fos as compared to that of the untreated cells [2]: 1.1
expression level of MMP-3 as compared to that of the untreated cells [3]: 1.0 times
expression level of MMP-1 as compared to that of the untreated cells [4]: 1.1 times
expression level of MMP-9 as compared to that of the untreated cells [5]: 0.7 times
